Assay results: ChEMBL document CHEMBL5661955, “ASAP - In vitro cytotoxicity” (2024)
“And” between values parts separate entries of the source, which are not always exact repeats. Equal values may be shown once.

How the values were obtained:
[1] = Functional CPE-based assay to measure dose dependent changes in cell viability from drug treatment in Vero E6 miRFP670 cells (cotreated with P-gp inhibitor, CP100356). Cells are treated with antiviral candidates that have been serially diluted. Cytotoxicity is reported via analysis of MTS assays in uninfected cells. The assay has been performed by KU Leuven.; type: toxicity, Vero C1008; conditions: chlorocebus sabaeus, p-gp concentration 500 nM
[2] = Functional assay to measure dose dependent changes in cell viability from drug treatment in Vero E6 miRFP670 cells (cotreated with P-gp inhibitor, CP100356) that are infected with Dengue virus type 2 New Guinea C. […] Cytotoxicity is reported via via analysis of DAPI count using high-content imager. The assay has been performed by KU Leuven.; type: toxicity, cell-based, Vero C1008; conditions: chlorocebus sabaeus, p-gp concentration 500 nM
[3] = Functional metabolic assay to measure dose dependent changes in cell viability from drug treatment in Vero E6/TMPRSS2 cells (cotreated with P-gp inhibitor, Elacridar). […] Cytotoxicity is reported via measuring absorbance and analysis of MTT/MTS assays in uninfected cells. The assay has been performed by Icahn School of Medicine at Mount Sinai.; type: toxicity, cell-based, VeroE6/TMPRSS2; conditions: chlorocebus sabaeus, p-gp concentration 2 uM
[4] = Vero E6 miRFP670 cells, with CP100356 (P-gp inhibitor, concentration not stated)
[5] = with CP100356 (P-gp inhibitor, concentration not stated)
[6] = Vero E6/TMPRSS2 cells, with Elacridar (P-gp inhibitor, concentration not stated)

SMILES | CC50 [1, 4] | CC50 [2, 5] | further results
CNC(=O)[C@H](Nc1ccc2c(c1)CNC2)c1cc(Cl)cc2[nH]ncc12 | > 50 µM | 5.53 µM | 
O=C(NCC(F)F)[C@H](Nc1ccc2c(c1)CNC2)c1cc(F)cc2[nH]ncc12 | > 50 µM | > 50 µM | 
O=C(Nc1ccc2c(c1)CNC2)c1cc(Cl)cc2[nH]c(-c3ccc(F)cc3O)nc12 | 2.19 µM | 1.64 µM | 
O=C(Nc1cc(Cl)cc(-c2ccc3[nH]c(C(=O)O)cc3c2)c1)OCc1ccccc1 | 25.2 µM | 27.1 µM | CC50 ([2]; vero c1008): 14.3 µM
CC(C)CNC(=O)[C@H](Nc1ccc2c(c1)CNC2)c1cc(Cl)cc2[nH]ncc12 | > 50 µM | 17 µM | 
Cn1c(=O)[nH]c2c(C(=O)Nc3ccc4c(c3)CNC4)cc(Br)cc21 | 34.2 µM | > 50 µM | 
O=C(Nc1ccc2c(c1)CNC2)c1cccc2nc(O)ccc12 | 36.5 µM | > 50 µM | 
CCCn1cc2c(C(=O)Nc3ccc4c(c3)CNC4)cc(Cl)cc2n1 | 17.4 µM | 21.5 µM | 
Cc1nc2c(C(=O)Nc3ccc4c(c3)CNC4)cc(Cl)cc2[nH]1 | 4.77 µM | 6.02 µM | 
O=C(Nc1cc2c(c(-c3ccnnc3)c1)CNC2)c1cc(Cl)cc2[nH]ncc12 | > 50 µM | 25.8 µM | 
O=C1Cc2cc(C(=O)Nc3ccc4c(c3)CNC4)ccc2N1 |  | > 50 µM | CC50 ([1]; vero c1008): 8.74 µM and > 50 µM
Cc1ncc(-c2cc(F)cc(C(=O)Nc3ccc4c(c3)CNC4)c2)s1 | 23.1 µM | > 50 µM | 
O=C(Nc1ccc2c(c1)CN[C@H]2CC1CC1)c1cc(F)cc2[nH]ncc12 | 11.8 µM | 18.7 µM | 
O=C(Nc1ccc2c(c1)CNC2)c1cc(Cl)cc2c1NCCC2 | 6.83 µM | 24.8 µM | 
O=C1Nc2ccc(C(=O)Nc3ccc4c(c3)CNC4)cc2C1=O | > 50 µM | 25.7 µM | 
Cc1cccc(-c2nc3c(C(=O)Nc4ccc5c(c4)CNC5)cc(F)cc3[nH]2)c1 | 2.76 µM | 0.838 µM | 
O=C(Nc1cnc2c(c1)CNC2)c1cc(F)cc2[nH]ncc12 | > 50 µM | > 50 µM | 
C=CC[C@H]1NCc2cc(NC(=O)c3cc(Cl)cc4[nH]ncc34)ccc21 | 11.8 µM | 3.12 µM | 
O=C(NCC(F)F)[C@H](Nc1cnc2c(c1)CNC2)c1cc(Cl)cc(C2CC2)c1 | > 50 µM | > 50 µM | 
FC(F)(F)Oc1cc(Cl)cc2c(Cc3ccc(-c4nnn[nH]4)cc3)c[nH]c12 | 30.6 µM | 11.1 µM | 
O=C(Nc1ccc2c(c1)CNC2)c1cc(Cl)cc2cn[nH]c12 | > 50 µM | 5 µM | 
O=C(Nc1ccc2c(c1)CNC2)c1cc(Cl)cc2c1cnn2C[C@H]1CCCO1 | 26.9 µM | 37.1 µM | 
CC(C)n1cc2c(C(=O)Nc3ccc4c(c3)CNC4)cc(Cl)cc2n1 | 11.8 µM | 22.7 µM | 
CCCNC(=O)[C@H](Nc1ccc2c(c1)CNC2)c1cc(Cl)cc2[nH]ncc12 | > 50 µM | 12.9 µM | 
N#Cc1cccc(-c2nc3c(C(=O)Nc4ccc5c(c4)CNC5)cc(F)cc3[nH]2)c1 | 29.2 µM | 20.7 µM | 
COc1cccc(-c2nc3c(C(=O)Nc4ccc5c(c4)CNC5)cc(F)cc3[nH]2)c1 | 2.86 µM | 5.1 µM | 

SMILES | CC50 [1, 4] | CC50 [2, 5] | further results
O=C(Nc1ccc2c(c1)CNC2)c1cc(F)c2[nH]ccc2c1 | 48.1 µM | > 50 µM | 
O=C(Nc1ccc2c(c1)CNC2)c1cc(F)cc2c1CCC2 | 33 µM | > 50 µM | 
C=CC[C@H]1NCc2cc(NC(=O)c3cc(F)cc4c3CC(=O)N4)ccc21 | > 50 µM | > 50 µM | 
O=C(Nc1ccc2c(c1)CNC2)c1cc(Cl)cc2ccccc12 | 10.1 µM | 25.1 µM | 
Cc1cccc(-c2nc3c(C(=O)Nc4ccc5c(c4)CNC5)cc(Cl)cc3[nH]2)c1O | 3.03 µM | 9 µM | CC50 ([1]; vero c1008): 3.17 µM; CC50 ([2]; vero c1008): 8.94 µM
O=C(Nc1cc2c(c(C3=CC[C@H](O)CC3)c1)CNC2)c1cc(Cl)cc2[nH]ncc12 | > 50 µM | > 50 µM | 
O=C(NCc1cccnc1)[C@H](Nc1ccc2c(c1)CNC2)c1cc(Cl)cc2[nH]ncc12 | 8.32 µM | > 50 µM | 
O=C(Nc1ccc2c(c1)CNC2)c1cc(F)cc(-c2cn[nH]c2)c1 | > 50 µM | 37.2 µM | 
O=C(Nc1cc(Br)c2c(c1)CNC2)c1cc(F)cc2[nH]ncc12 | > 50 µM | > 50 µM | 
O=C(Nc1cc2c(c(C3=CCOCC3)c1)CNC2)c1cc(F)cc2[nH]ncc12 | > 50 µM | > 50 µM | 
O=C(Nc1cc2c(cc1C1CC1)CNC2)c1cc(F)cc2[nH]ncc12 | > 50 µM | 10.1 µM | 
O=C(Nc1ccc2c(n1)CNC2)c1cc(Cl)cc2[nH]ncc12 | > 50 µM | > 50 µM | 
O=C(NCCCn1ccnc1)[C@H](Nc1ccc2c(c1)CNC2)c1cc(Cl)cc(C2CC2)c1 | 11.5 µM | > 50 µM | 
O=C(Nc1ccc2c(c1)CNC2)c1cc(Cl)cc2[nH]c(-c3cccc(F)c3)nc12 | > 50 µM |  | 
COC(=O)c1cc(Br)cc2c(Cc3ccc(-c4nnn[nH]4)cc3)c[nH]c12 | 36.9 µM | 9.83 µM | 
C[C@H]1NCc2cc(NC(=O)c3cc(F)cc4[nH]ncc34)ccc21 | > 50 µM |  | 
O=C(Nc1cc(Cl)cc(C(=O)Nc2ccc(-n3nn[nH]c3=O)cc2)c1)OCc1ccccc1 | > 50 µM | 31.8 µM | 
O=C(Nc1ccc2c(c1)CNC2)c1cc(Cl)cc2[nH]c(-c3c[nH]c(=O)c(Br)c3)nc12 | > 50 µM | 14.3 µM | 
O=C(Nc1ccc2c(c1)CNC2)c1cc(Cl)cc2cc[nH]c12 | 5.91 µM | 19.7 µM | 
O=C(Nc1ccc2c(c1)CNC2)c1cccc2cn[nH]c12 | 47.8 µM | > 50 µM | 
COc1cc(-c2cc(NC(=O)c3cc(F)cc4[nH]ncc34)cc3c2CNC3)ccn1 | > 50 µM | > 50 µM | 
O=C(Nc1ccc2c(c1)CNC2)c1cccc2[nH]c(=O)[nH]c12 | > 50 µM | 33.3 µM | 
O=C(Nc1ccc2c(c1)CNC2)c1cc(Cl)cc2c1cnn2C1CCC1 | 9.91 µM | 12.8 µM | 
O=C(O)Cc1c[nH]c2cc(-c3cc(Cl)cc(NC(=O)OCc4ccccc4)c3)ccc12 | 32.1 µM | 18 µM | 
O=C(Nc1ccc2c(c1)CNC2)c1cc(Cl)cc2[nH]c(-c3ccccc3)nc12 | 2.09 µM |  | 
O=C(Nc1ccc2c(c1)CNC2)c1cc(F)cc2nn(-c3ccccn3)nc12 |  |  | CC50 ([1]; vero c1008): 7.85 µM and 1.85 µM; CC50 ([2]; vero c1008): 7.3 µM and 1.92 µM

SMILES | CC50 [1, 4] | CC50 [2, 5] | further results
O=C(Nc1ccc2c(c1)CNC2)c1cc(F)cc(-c2cccnc2)c1 | 15.4 µM | > 50 µM | 
O=C(Nc1ccc2c(c1)CN[C@H]2CCO)c1cc(F)cc2[nH]ncc12 | > 50 µM | 42.5 µM | 
O=C(Nc1ccc2c(c1)CN[C@H]2C[C@H](O)CO)c1cc(F)cc2[nH]ncc12 | > 50 µM | 31.2 µM | 
Cc1ncc(-c2cc(F)cc(C(=O)Nc3ccc4c(c3)CNC4)c2)o1 | 11.9 µM | 12.5 µM | 
Clc1cc(CNc2ccc3c(c2)CNC3)c2cn[nH]c2c1 | 29.8 µM | 21.4 µM | 
CC(C)NC(=O)[C@H](Nc1ccc2c(c1)CNC2)c1cc(Cl)cc2[nH]c(-c3ccccc3)nc12 |  |  | CC50 ([1]; vero c1008): 5.66 µM and 9.23 µM and 13.7 µM; CC50 ([2]; vero c1008): 23.2 µM and 7.47 µM and 13.6 µM
CC(=O)Nc1cc(Br)cc(C(=O)Nc2ccc3c(c2)CNC3)c1 | > 50 µM | 0.561 µM | 
CC1=C(c2cc(NC(=O)c3cc(Cl)cc4[nH]ncc34)cc3c2CNC3)CCC1=O | > 50 µM | > 50 µM | 
N#CCc1cc(NC(=O)c2cc(F)cc3[nH]ncc23)cc2c1CNC2 | > 50 µM | > 50 µM | 
c1ccc(-c2csc(C3CCN(Cc4c[nH]c5ccccc45)CC3)n2)cc1 |  | > 10 µM | CC10 ([3]; veroe6/tmprss2): 0.299 µM and 0.162 µM; CC50 ([3]; veroe6/tmprss2): > 10 µM and 20.1 µM
Cc1ccc(-c2nc3c(C(=O)Nc4ccc5c(c4)CNC5)cc(F)cc3[nH]2)cc1 | 1.42 µM | 3 µM | 
O=C(Nc1cc2c(cc1Br)CNC2)c1cc(F)cc2[nH]ncc12 | 46.1 µM | > 50 µM | 
O=C(Nc1ccc2c(c1)CNC2)c1cc(Cl)cc2[nH]c(-c3ccnn3C3CC3)nc12 | 1.78 µM | 11.7 µM | 
N[C@H]1Cc2ccc(NC(=O)c3cccc4c3CC(=O)N4)cc2C1 | > 50 µM | > 50 µM | 
O=C(Nc1ccc2c(c1)CN[C@H]2C1CC1)c1cc(F)cc2[nH]ncc12 | > 50 µM |  | 
NCc1ccc(F)c(NC(=O)c2cc(Cl)cc(NC(=O)OCc3ccccc3)c2)c1 |  |  | CC50 [3, 6]: > 50 µM; CC10 ([3]; veroe6/tmprss2): > 50 µM
NCc1cccc(NC(=O)[C@@H](NC(=O)OCc2ccccc2)c2ccc(Br)c(Cl)c2)c1 |  |  | CC50 [3, 6]: 8.15 µM; CC10 ([3]; veroe6/tmprss2): 0.556 µM
N#Cc1cc(Cl)cc([C@H](C#N)Nc2ccc3c(c2)CNC3)c1 |  |  | CC50 [3, 6]: > 50 µM; CC10 ([3]; veroe6/tmprss2): > 50 µM
C=CC[C@H](Nc1cc(Cl)cc(NC(=O)OCc2ccccc2)c1)c1cccc(-c2nn[nH]n2)c1 |  |  | CC50 [3, 6]: > 50 µM; CC10 ([3]; veroe6/tmprss2): 0.105 µM
NCc1cccc(NC(=O)c2cc(Cl)cc(NC(=O)OCc3ccccc3)c2)c1 |  |  | CC50 ([3]; veroe6/tmprss2): > 10 µM and 18.5 µM and 30.7 µM
CC1(C)NCc2cc(NC(=O)c3cc(F)cc4[nH]ncc34)ccc21 | > 50 µM |  | 
NCCCCc1ccc(NC(=O)c2cc(Cl)cc(NC(=O)OCc3ccccc3)c2)cc1 |  | 6.49 µM | CC50 [3, 6]: > 50 µM; CC10 ([3]; veroe6/tmprss2): > 50 µM
C[C@@H](N)c1cccc(NC(=O)[C@H]2[C@H]3CCCCC[C@H]3[C@H]2NC(=O)OCc2ccccc2)c1 |  |  | CC50 [3, 6]: > 50 µM; CC10 ([3]; veroe6/tmprss2): 0.044 µM
CCOc1cccc(-c2ccc(S(=O)(=O)Nc3ccc(Cl)cc3C(=O)O)cc2)c1 |  |  | CC50 ([3]; veroe6/tmprss2): > 50 µM
Cc1ccc2cc(Cl)cc(C(=O)Nc3ccc4c(c3)CNC4)c2n1 |  |  | CC50 [3, 6]: 31.3 µM; CC10 ([3]; veroe6/tmprss2): 2.835 µM
Cc1ccc(S(=O)(=O)CNC(=O)[C@H](Nc2ccc3c(c2)CNC3)c2cc(Cl)cc3[nH]ncc23)cc1 |  |  | CC50 [3, 6]: > 50 µM; CC10 ([3]; veroe6/tmprss2): > 50 µM
